# Measurements from ChEMBL document CHEMBL1806415, “Growth inhibition of Escherichia coli and methicillin-resistant Staphylococcus aureus by targeting cellular methionine aminopeptidase” (Eur J Med Chem, 2011).
# pIC50: −log10 of the molar value. Calls of active or inactive are those of the source. The rule behind the calls is not given here.
# Columns and labels:
# Staphylococcus aureus [1] = test: Antibacterial activity against […] Staphylococcus aureus ATCC 43300 assessed as growth inhibition after 10 hrs by spectrophotometry; format: functional, organism-based; details: ATCC 43300, 10 h
# [2] = Inhibition of Escherichia coli recombinant MetAP expressed in Escherichia coli BL21(DE3) assessed as production of fluorescent aminomethylcoumarin using Met-AMC as substrate by fluorescence assay in presence of […]
# Staphylococcus aureus [3] = test: Antibacterial activity against methicillin-resistant Staphylococcus aureus ATCC BAA1680 assessed as growth inhibition after 10 hrs by spectrophotometry; format: functional, organism-based; details: ATCC BAA1680, 10 h
# Escherichia coli [4] = test: Antibacterial activity against Escherichia coli AS19 assessed as growth inhibition after 10 hrs by spectrophotometry; format: functional, organism-based; details: AS19, 10 h
# Escherichia coli [5] = test: Inhibition of MetAP in Escherichia coli AS19 harboring pBACE plasmid assessed as cellular accumulation of unprocessed GST after 50 hrs by mass spectrometry
Compound,pIC50 (Staphylococcus aureus [1]),MIC90 (Staphylococcus aureus [1]),pIC50 [2],pIC50 (Staphylococcus aureus [3]),MIC90 (Staphylococcus aureus [3]),MIC90 (Escherichia coli [4]),inhibition (Escherichia coli [5]),pIC50 (Escherichia coli [4])
Cc1sc(C)c(-c2ccc(O)c(O)c2)c1Br,4.91,18 µg/mL,4.20,4.63,13 µg/mL,5 µg/mL,,
Oc1ccc(-c2ccsc2)cc1O,4.93,11 µg/mL,4.42,4.38,13 µg/mL,15 µg/mL,,
Oc1ccc(-c2sccc2Cl)cc1O,4.59,12 µg/mL,4.81,4.20,25 µg/mL,5 µg/mL,Active,4.63
Oc1ccc(-c2cc(Cl)sc2Cl)cc1O,4.95,4 µg/mL,4.28,5.34,2 µg/mL,3 µg/mL,Active,
Oc1ccc(-c2sc(Cl)c(Cl)c2Cl)cc1O,5.55,1 µg/mL,4.66,6.00,0.7 µg/mL,,,5.64
CCCCc1ccsc1-c1ccc(O)c(O)c1,5.09,5 µg/mL,4.43,4.91,4 µg/mL,5 µg/mL,,
CCCc1ccsc1-c1ccc(O)c(O)c1,4.86,16 µg/mL,4.31,4.48,11 µg/mL,4 µg/mL,,
